From ChEMBL document CHEMBL1125472, “5-lipoxygenase: properties, pharmacology, and the quinolinyl(bridged)aryl class of inhibitors” (J Med Chem, 1992)

Key:
Mus musculus = species: Mus musculus; assay: The effective dose which inhibits […](AA) and tetradecanoylphorbol acetate(TPA) induced inflammation; type: functional
[1] = biological target: T1, Polyunsaturated fatty acid 5-lipoxygenase (Rattus norvegicus) (UniProt P12527); assay: The compound was tested for inhibition of 5-lipoxygenase in rat RBL-2H3 cells; type: cell-based
T1 sequence (whole entry): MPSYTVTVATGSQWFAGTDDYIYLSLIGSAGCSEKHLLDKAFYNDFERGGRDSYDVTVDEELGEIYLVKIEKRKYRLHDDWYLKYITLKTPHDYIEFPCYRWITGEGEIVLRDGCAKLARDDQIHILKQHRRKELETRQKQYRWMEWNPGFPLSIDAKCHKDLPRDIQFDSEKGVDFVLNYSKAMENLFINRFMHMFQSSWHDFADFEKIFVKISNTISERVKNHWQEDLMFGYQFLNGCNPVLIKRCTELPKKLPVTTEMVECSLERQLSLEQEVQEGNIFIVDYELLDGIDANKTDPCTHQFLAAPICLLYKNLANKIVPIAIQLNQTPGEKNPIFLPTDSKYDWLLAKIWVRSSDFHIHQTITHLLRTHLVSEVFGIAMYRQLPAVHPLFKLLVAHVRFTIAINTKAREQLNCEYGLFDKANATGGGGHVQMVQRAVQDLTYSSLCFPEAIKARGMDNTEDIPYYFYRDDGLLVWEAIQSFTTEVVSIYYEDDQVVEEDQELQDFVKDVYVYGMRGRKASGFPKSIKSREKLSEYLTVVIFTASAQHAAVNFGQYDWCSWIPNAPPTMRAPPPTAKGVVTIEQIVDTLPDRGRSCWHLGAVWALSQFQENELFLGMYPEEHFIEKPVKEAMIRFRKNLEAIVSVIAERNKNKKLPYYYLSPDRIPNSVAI

[2] = biological target: T2, Polyunsaturated fatty acid 5-lipoxygenase (Mus musculus, UniProt P48999); assay: The compound was tested for inhibitory activity against 5-lipoxygenase in mouse macrophages
T2 sequence (P48999 whole entry): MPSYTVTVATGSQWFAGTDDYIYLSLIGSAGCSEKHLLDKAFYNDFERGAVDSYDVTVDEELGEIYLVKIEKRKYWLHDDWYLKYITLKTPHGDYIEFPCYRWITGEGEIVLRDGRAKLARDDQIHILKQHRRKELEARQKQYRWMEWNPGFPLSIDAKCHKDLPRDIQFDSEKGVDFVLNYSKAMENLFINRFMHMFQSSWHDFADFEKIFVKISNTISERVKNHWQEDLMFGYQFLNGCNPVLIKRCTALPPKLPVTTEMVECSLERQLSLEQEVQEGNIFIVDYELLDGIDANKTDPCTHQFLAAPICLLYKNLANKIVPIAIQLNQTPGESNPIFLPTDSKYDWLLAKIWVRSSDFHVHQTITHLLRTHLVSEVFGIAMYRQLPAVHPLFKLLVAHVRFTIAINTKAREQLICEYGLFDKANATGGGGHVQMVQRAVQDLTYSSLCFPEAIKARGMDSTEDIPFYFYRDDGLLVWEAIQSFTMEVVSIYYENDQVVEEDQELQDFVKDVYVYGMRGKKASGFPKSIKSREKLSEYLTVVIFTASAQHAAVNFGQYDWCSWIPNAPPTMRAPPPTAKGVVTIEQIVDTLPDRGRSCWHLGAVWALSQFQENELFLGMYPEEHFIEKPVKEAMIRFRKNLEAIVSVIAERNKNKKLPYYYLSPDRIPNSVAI

Cyclooxygenase = biological target: T3, Cyclooxygenase (Rattus norvegicus, UniProt P35355+Q63921); assay: The compound was tested for inhibitory activity against cyclooxygenase in rat polymorphonuclear leukocytes[PMNS]; type: cell-based
T3 sequence (P35355 whole entry): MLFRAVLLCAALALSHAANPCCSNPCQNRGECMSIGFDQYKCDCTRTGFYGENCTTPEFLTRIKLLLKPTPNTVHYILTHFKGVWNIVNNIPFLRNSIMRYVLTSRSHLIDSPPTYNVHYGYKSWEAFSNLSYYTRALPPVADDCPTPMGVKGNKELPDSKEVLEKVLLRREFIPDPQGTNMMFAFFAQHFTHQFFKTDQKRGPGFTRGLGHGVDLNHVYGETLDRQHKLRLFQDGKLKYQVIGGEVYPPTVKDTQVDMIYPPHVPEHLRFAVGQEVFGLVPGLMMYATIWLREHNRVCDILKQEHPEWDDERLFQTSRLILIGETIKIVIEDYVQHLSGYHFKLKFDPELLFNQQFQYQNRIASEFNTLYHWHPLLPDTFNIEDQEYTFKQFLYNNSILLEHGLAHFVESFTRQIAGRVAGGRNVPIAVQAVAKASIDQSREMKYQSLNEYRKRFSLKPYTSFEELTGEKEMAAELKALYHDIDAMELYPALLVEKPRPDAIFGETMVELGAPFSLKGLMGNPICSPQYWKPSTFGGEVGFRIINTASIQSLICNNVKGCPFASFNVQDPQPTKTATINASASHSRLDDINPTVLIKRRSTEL
T3 sequence (Q63921 whole entry): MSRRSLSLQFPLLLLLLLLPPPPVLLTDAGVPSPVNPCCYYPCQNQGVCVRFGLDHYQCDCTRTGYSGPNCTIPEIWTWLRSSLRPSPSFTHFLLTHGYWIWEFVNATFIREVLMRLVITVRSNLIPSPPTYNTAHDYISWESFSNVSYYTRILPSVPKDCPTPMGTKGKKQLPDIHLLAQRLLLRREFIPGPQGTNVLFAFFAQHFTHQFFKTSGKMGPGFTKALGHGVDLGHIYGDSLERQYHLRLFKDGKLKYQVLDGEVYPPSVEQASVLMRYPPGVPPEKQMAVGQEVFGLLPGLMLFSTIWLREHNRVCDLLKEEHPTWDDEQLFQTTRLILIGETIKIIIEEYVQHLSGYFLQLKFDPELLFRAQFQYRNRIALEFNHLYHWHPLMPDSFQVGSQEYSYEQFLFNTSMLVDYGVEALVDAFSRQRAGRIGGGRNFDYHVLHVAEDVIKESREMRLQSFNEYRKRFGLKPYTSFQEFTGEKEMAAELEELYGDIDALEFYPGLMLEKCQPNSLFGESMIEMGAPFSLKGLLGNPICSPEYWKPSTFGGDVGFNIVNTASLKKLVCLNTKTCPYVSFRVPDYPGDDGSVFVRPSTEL

RBL-2H3 = assay: The compound was tested for inhibition LTC4 synthesis in RBL-2H3 Cells; type: functional, Rattus norvegicus
Cavia porcellus = species: Cavia porcellus; assay: The effective dose which inhibits UVB-induced guinea pig skin erythema; type: functional
[3] = biological target: T1, Polyunsaturated fatty acid 5-lipoxygenase (Rattus norvegicus); assay: The compound was tested for inhibition of 5-lipoxygenase translocation in SAR in rat RBL-2H3 cells; type: cell-based

c1ccc2nc(COc3cccc4ccccc34)ccc2c1
ED50 (Mus musculus): 0.3 mg ear-1 | Inhibition [1]: > 10 µM | IC50 [2]: 200 nM | IC50 (Cyclooxygenase): 6300 nM | Inhibition (RBL-2H3): 450 nM | ED50 (Cavia porcellus): 0.25 mg/spot | Inhibition [3]: 500 nM
